From patent US7319094B2, “Increased and sustained in vivo gene expression using a nucleic acid, histone and amphipathic compound composition” (Rhode Island Hospital, priority 2001, dated 2008)
“Also recorded” adds a separate entry of the source.

What was measured:
Assay type in all cases: cell-based, human
[1] = system: PNET2 cells induced to express AD7c-NTP; assay: Crystal violet viability assay; settings: 3 mM IPTG-induced AD7c-NTP; relative to un-induced FCS-stimulated and IPTG-induced NGF or PDGF stimulated cultures
Protocol: (§1) To examine the effects of different growth factors on AD7c-NTP expression (and over-expression), the cells were serum-starved for 16 hours, after which IPTG (1-5 mM) was added to the medium. Four hours later, the cells were stimulated with insulin (50 nM), IGF-1 (5 ng/ml), NGF ([…]), or platelet-derived growth factor (PDGF; 5 ng/ml) for 24-72 hours. The cells were analyzed for morphological changes, viability, AD7c-NTP immunoreactivity, and expression of pro-apoptosis genes, survival genes, and phospho-tau.
Viability was measured by a standard crystal violet assay. Crystal violet dye labels only viable cells. The assays were performed with cells seeded into 96-well plates at a density of 2×10^4 cells/well. The absorbances were measured using a Spectracount plate reader (Packard, Meriden, Conn.). The crystal violet absorbances increased linearly with cell density between 10^4 and 5×10^5 cells/well.
Cells were serum-starved for 24 hours. However, since several hours of IPTG stimulation were required to induce AD7c-NTP gene expression or CAT activity, IPTG (3 mM) was added to the cultures after 16 hours of serum-starvation, i.e. 8 hours prior to growth factor stimulation. […]
Increased cell loss associated with insulin-stimulation and AD7c-NTP over-expression Cell viability was quantified using the microculture Crystal violet assay with cells seeded into 96-well plates. […]

[2] = system: PNET2 cells induced to express AD7c-NTP; assay: Cell morphology by phase contrast microscopy; settings: IPTG-induced AD7c-NTP; insulin 50 nM, IGF-1 5 ng/ml, NGF 2.5 ng/ml, PDGF 5 ng/ml; 24-48 hours
Protocol: as §1
Cells were serum-starved for 24 hours. However, since several hours of IPTG stimulation were required to induce AD7c-NTP gene expression or CAT activity, IPTG (3 mM) was added to the cultures after 16 hours of serum-starvation, i.e. 8 hours prior to growth factor stimulation. The cells were stimulated with insulin (50 nM), IGF-1 (5 ng/ml), NGF (2.5 ng/ml), or PDGF (5 ng/ml) and examined by phase contrast microscopy 24-48 hours later. PNET2 cells could be maintained in serum-free medium for 5 to 7 days with insulin, IGF-1, NGF, or PDGF as the only growth stimulus. In addition, each of these growth factors supports DNA synthesis and promotes modest outgrowth of multipolar neurites in PNET2 cells.

p53 = p53 expression, Western blot / MICE assay; settings: PNET2 cells induced to express AD7c-NTP, growth factor stimulated
From the text: (§2) Standard Western blot assays wew used to measure cellular levels of p53, Bcl-2, p21/Waf1, phospho-tau, tau, c-fos, NTP, and activated (phosphorylated) forms of Erk mitogen activated protein (MAP) kinase, amino-terminal c-jun-activated kinase (pJNK), and p38/HOG1. Immunoprecipitation followed by Western blot analysis was used to measure p85 subunit associated with IRS1. For Western blot analysis of p53 Bcl-2, phospho-tau, tau, c-fos, and NTP, the cells were lysed in ice cold radioimmunoprecipitation assay (RIPA) buffer supplemented with protease and phosphatase inhibitors. For the immunoprecipitation studies, Western blot analysis of phospho-Erk, pJNK, and p38, and the PI3 kinase assays, the cells were harvested in Triton lysis buffer supplemented with protease and phosphatase inhibitors. Protein concentrations were measured using the BCA assay (Pierce, Rockford, Ill.). Samples containing 60 μg of protein were fractionated by sodium dodecyl sulfate polyacrylamide gel electrophoresis (SDS-PAGE), then transferred to PVDF membranes, and analyzed by Western immunoblotting. Immunoreactivity was detected with horseradish peroxidase conjugated secondary IgG and PicoWest enhanced chemiluminescence reagents (Pierce Chemical Company, Rockford, Ill.). CAT activity was measured using known methods.
(§3) The MICE assay is known in the art (e.g., as described by de la Monte et al., 1999, Biotechniques 26:107301076). The assay is a rapid and sensitive method for quantifying immunoreactivity in 96-well micro-cultures and combines the advantages of the enzyme-linked immunosorbant assay with immunocytochemical staining to permit sensitive in situ quantification of protein expression with values normalized to cell density. […] Immunoreactivity was detected using horseradish peroxidase conjugated secondary antibody (Pierce, Rockford, Ill.) and the TMB soluble peroxidase substrate (Pierce, Rockford, Ill.). Absorbances were measured at 450 nm using a Spectracount plate reader. […]

Bcl-2 = Bcl-2 expression, Western blot / MICE assay; settings: PNET2 cells induced to express AD7c-NTP, growth factor stimulated
From the text: as §2, §3

p21/Waf1 = p21/Waf1 expression, Western blot / MICE assay; settings: PNET2 cells induced to express AD7c-NTP, growth factor stimulated
From the text: as §2, with “For the immunoprecipitation studies, Western blot analysis of phospho-Erk, pJNK, and p38, and the PI3 kinase assays, the cells were harvested in Triton lysis buffer supplemented with protease and phosphatase inhibitors.” left out
(§4) The MICE assay is known in the art (e.g., as described by de la Monte et al., 1999, Biotechniques 26:107301076). […] Immunoreactivity was detected using horseradish peroxidase conjugated secondary antibody (Pierce, Rockford, Ill.) and the TMB soluble peroxidase substrate (Pierce, Rockford, Ill.). […]

phospho-tau = phospho-tau expression, Western blot / MICE assay; settings: PNET2 cells induced to express AD7c-NTP; relative to PDGF-stimulated cultures
From the text: as §2, with “For the immunoprecipitation studies, Western blot analysis of phospho-Erk, pJNK, and p38, and the PI3 kinase assays, the cells were harvested in Triton lysis buffer supplemented with protease and phosphatase inhibitors.” left out
as §4

[3] = system: nitric oxide synthase-3 (NOS-3); assay: NOS-3 expression, Western blot; settings: PNET2 cells induced to express AD7c-NTP; relative to PDGF-stimulated cultures
From the text: as §2, with “methods. […]” for “methods.”

p25 = p25 expression, Western blot / MICE assay; settings: PNET2 cells induced to express AD7c-NTP
From the text: as §2, with “For the immunoprecipitation studies, Western blot analysis of phospho-Erk, pJNK, and p38, and the PI3 kinase assays, the cells were harvested in Triton lysis buffer supplemented with protease and phosphatase inhibitors.” left out
as §4

phospho-Erk MAPK = assay: Growth factor stimulated phospho-Erk MAPK, Western blot; settings: for phospho-Erk MAPK level, short-term stimulation: 0-30 minutes stimulation; for phospho-Erk MAPK level, 24 hours: 24 hours of AD7c-NTP induction and growth factor stimulation
From the text: as §2
(§5) The potential mechanisms by which the differential effects of insulin, IGF1 and PDGF might occur were explored by examining pathways, which mediate PNET2 neuronal apoptosis and neuritic sprouting. […] Western blot analysis was performed with cell lysates obtained from cultures stimulated with insulin, IGF1, or PDGF for 0-30 minutes or 24 hours with equivalent protein loading (60 μg/sample). The membranes were probed using antibodies to Erk, phospho-Erk, Jun, and phospho-JNK. […] In contrast, after 24 hours of AD7c-NTP gene induction and growth factor stimulation, high levels of phospho-Erk MAPK were detected in the IGF-1 and PDGF-stimulated cultures, but not in the serum-starved or insulin-stimulated cultures. […] In contrast, the levels of c-fos transcription factor were equally expressed after 24 hours IPTG induction of AD7c-NTP expression and either serum starvation or stimulation with insulin, IGF1 or PDGF.

phospho-JNK = assay: Growth factor stimulated phospho-JNK, Western blot; settings: for phospho-JNK level, short-term stimulation: 5-30 min stimulation
From the text: as §2, §5

[4] = system: IRS-1-associated PI3 kinase; assay: IRS-1-associated PI3 kinase activity; settings: 3 mM IPTG-induced cultures, 30 minutes of stimulation
Protocol: The cells were harvested in Triton lysis buffer supplemented with protease and phosphatase inhibitors. Total PI3K was immunoprecipitated from 500 μg protein in cell lysates using rabbit polyclonal antibodies to the p85 subunit of PI3K and Protein A sepharose. The immunoprecipitants were incubated for 5 minutes at room temperature with 10 μg of sonicated phosphatidylinositol in HEPES buffer (200 mM HEPES, 4 mM EGTA, 4 mM sodium phosphate, pH 7.0). Reactions were initiated by the addition of 5 μCi [α^32p] ATP, 15 mM MgCl2, 150 mM ATP, 1.5 mM Tris-HCl, pH 7.4, and 15 mM NaCl. […] Phosphorylated lipids were analyzed by thin layer chromatography using gel plates pre-coated with 1% oxalate (Merck, White House Station, N.J.). PI3K activity was measured with a phosphorimager.
PI3 kinase is an important mediator of neuronal survival. […] Since insulin and IGF-1 can activate PI3 kinase through the insulin-receptor substrate-1 (IRS-1) or through IRS-1-independent pathways, both IRS1-associated PI3 kinase and total PI3 kinase activities were measured. […] Levels of PI3 kinase activity were measured in anti-phospho-tyrosine (PY) immunoprecipitates. […] Similarly, PI3 kinase activity was readily detected in the PY immunoprecipitates prepared with cells stimulated with insulin or PDGF.

[5] = system: PY-PI3 kinase (total PI3 kinase); assay: PI3 kinase activity in anti-phospho-tyrosine (PY) immunoprecipitates
Protocol: The cells were harvested in Triton lysis buffer supplemented with protease and phosphatase inhibitors. Total PI3K was immunoprecipitated from 500 μg protein in cell lysates using rabbit polyclonal antibodies to the p85 subunit of PI3K and Protein A sepharose. The immunoprecipitants were incubated for 5 minutes at room temperature with 10 μg of sonicated phosphatidylinositol in HEPES buffer (200 mM HEPES, 4 mM EGTA, 4 mM sodium phosphate, pH 7.0). Reactions were initiated by the addition of 5 μCi [α^32p] ATP, 15 mM MgCl2, 150 mM ATP, 1.5 mM Tris-HCl, pH 7.4, and 15 mM NaCl. After 10 minutes incubation at 30° C., the reactions were stopped by the addition of HCl to a final concentration of 1.2 N, followed by chloroform/methanol extraction. Phosphorylated lipids were analyzed by thin layer chromatography using gel plates pre-coated with 1% oxalate (Merck, White House Station, N.J.). PI3K activity was measured with a phosphorimager.
PI3 kinase is an important mediator of neuronal survival. The pro-survival effects of PI3K are mediated through activation of Akt (protein kinase B) and phosphorylation of Bad to render it inactivated. Inhibition of PI3 kinase activity is associated with PNET2 cell apoptosis. Therefore, experiments were carried out to determine if growth factor stimulated PI3 kinase activity was inhibited in insulin or IGF-1-stimulated cultures. Such inhibition has been observed following chronic ethanol exposure. Since insulin and IGF-1 can activate PI3 kinase through the insulin-receptor substrate-1 (IRS-1) or through IRS-1-independent pathways, both IRS1-associated PI3 kinase and total PI3 kinase activities were measured. These studies were conducted using insulin or PDGF stimulated cultures in which AD7c-NTP gene expression was induced by 3 mM IPTG stimulation. […] Levels of PI3 kinase activity were measured in anti-phospho-tyrosine (PY) immunoprecipitates. […] Similarly, PI3 kinase activity was readily detected in the PY immunoprecipitates prepared with cells stimulated with insulin or PDGF.

Row | Substance | cell density (crystal violet) [1] | cell morphology [2] | p53 level (p53) | Bcl-2 level (Bcl-2) | p21/Waf1 level (p21/Waf1) | phospho-tau level (phospho-tau) | NOS-3 level [3] | p25 level (p25) | phospho-Erk MAPK level, short-term stimulation (phospho-Erk MAPK) | phospho-Erk MAPK level, 24 hours (phospho-Erk MAPK) | phospho-JNK level, short-term stimulation (phospho-JNK) | phospho-JNK level, 24 hour time point (phospho-JNK) | IRS-1-associated PI3 kinase activity [4] | PY-PI3 kinase activity, short-term ([5]; 5-30 minutes, PDGF versus insulin-stimulated cultures) | PY-PI3 kinase activity, 24 or 48 hours ([5]; 24 or 48 hours of stimulation)
1 | IGF-1: Recombinant human IGF1 purchased from Sigma | significantly reduced cell densities | two populations of cells | intermediate levels; also recorded: significantly increased levels | intermediate levels; also recorded: reduced levels | significantly increased levels | increased levels | increased levels | significantly increased levels | increased levels | high levels | much lower levels | no detectable phospho-JNK expression | – | – | –
2 | NGF: Recombinant human NGF purchased from Sigma | – | extensive neuritic growth with multipolar fine interconnecting processes and minimal evidence of on-going cell death | – | – | – | – | – | – | – | – | – | – | – | – | –
3 | PDGF | – | extensive neuritic growth with multipolar fine interconnecting processes and minimal evidence of on-going cell death | no detectable p53 | high levels of Bcl-2 | – | – | – | – | minimal effect | high levels | much lower levels | no detectable phospho-JNK expression | virtually undetectable | consistently lower | similar
